Test results published in patent US11242549B2, “Bio-refinery waste utilization for enzyme production using novel penicillium funiculosum MRJ-16 fungal strain” (INDIAN OIL CORPORATION LIMITED, priority 2019, dated 2022).
Where two headings read alike, the source gives them in different places.

Tested on: Penicillium funiculosum MRJ-16 mutant strain
Format: cell-based
Settings: 120 hours of fermentation
Description: Fermentation process was carried out using ammonium sulphate (3-5 g/L), KH2PO4 (4-6 g/L), MgSO4.7H2O (0.5-1 g/L), CaCO3 (2.5-5 g/L), Glycerol (2-3 g/L), Corn steep solids (25-35 g/L), cellulose (25-40 g/L) and Tween-80 (1-2 ml/L) dissolved in distilled water. Novel Penicillium funiculosum MRJ-16 mutant strain developed in the laboratory was used for the study. […]
Cultivation of Penicillium funiculosum MRJ-16 mutant strain was conducted under conditions and media composition identical to example no. 1 along with inhibitors at different concentration.

Row | SMILES | Average FPA/ml (inhibitor 0.5% in media) [FPA/ml] | Average FPA/ml (inhibitor 0.25% in media) [FPA/ml]
1 | CC(=O)O [Acetic acid, acetic acid] | 6.49 | 
2 | O=Cc1ccco1 [Furfural, furfural] |  | 6.83
3 | O=Cc1ccc(CO)o1 [HMF, hydroxyl methyl furfural] |  | 6.07
